Values of other authors as cited in patent US11771784B2, “Material, device, and method for deactivating pathogen in aerosol, and methods for manufacturing thereof” (priority 2016, dated 2023).

Conditions: in water

## (sodium/potassium) tartrates
  maximum solubility limit: about 660 g/l

## [Cl-].[K+] [potassium chloride]
  maximum solubility limit: about 355 g/l
